ChEMBL document CHEMBL1136947, “Exploration of novel thiobarbituric acid-, rhodanine- and thiohydantoin-based HIV-1 integrase inhibitors” (Bioorg Med Chem Lett, 2009)

Legend:
[1] = target: T1, Human immunodeficiency virus type 1 integrase (Human immunodeficiency virus 1, UniProt Q7ZJM1); assay: Inhibition of HIV1 integrase using labelled oligonucleotide substrate by ELISA
[2] = target: T1, Human immunodeficiency virus type 1 integrase; assay: Inhibition of HIV1 integrase 3'-processing activity using labelled oligonucleotide substrate by ELISA
[3] = tested on: Human immunodeficiency virus 1; assay: Antiviral activity against HIV1 3B infected in human MT4 cells assessed as reduction of virus-induced cytopathogenicity by MTT assay; type: functional, organism-based; settings: Human immunodeficiency virus 1, 3B
[4] = Cytotoxicity against human MT4 cells by MTT method; type: cell-based
[5] = target: T1, Human immunodeficiency virus type 1 integrase; assay: Inhibition of HIV1 integrase strand transfer activity using labelled oligonucleotide substrate by ELISA
[6] = Therapeutic index, ratio of CC50 for human MT4 cells to EC50 for HIV1 3B; type: cell-based; settings: read-out: Ratio CC50/EC50

T1 sequence (Q7ZJM1 whole entry): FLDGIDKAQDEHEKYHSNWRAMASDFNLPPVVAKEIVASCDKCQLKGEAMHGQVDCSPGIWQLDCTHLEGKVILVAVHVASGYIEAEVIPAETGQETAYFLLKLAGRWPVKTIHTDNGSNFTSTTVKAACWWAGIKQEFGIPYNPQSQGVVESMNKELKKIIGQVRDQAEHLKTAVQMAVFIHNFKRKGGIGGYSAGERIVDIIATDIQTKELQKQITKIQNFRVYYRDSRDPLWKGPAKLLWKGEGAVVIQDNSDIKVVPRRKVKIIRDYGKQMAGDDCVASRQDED

Structure (SMILES)	IC50 [1]	IC50 [2]	EC50 [3]	CC50 [4]	IC50 [5]	selectivity ratio [6]
Cc1ccc(C(=O)O)cc1-c1ccc(C=C2C(=O)NC(=S)NC2=O)o1	46.4 µM	25.4 µM	> 159 µM	159 µM	–	–
O=C1NC(=S)NC(=O)C1=Cc1ccc(-c2cccc(C(=O)O)c2O)o1	> 250 µM	> 250 µM	> 140 µM	140 µM	–	–
Cc1cc(-c2ccc(C(=O)O)c(O)c2)oc1/C=C1\NC(=S)NC1=O	> 250 µM	> 250 µM	–	–	–	–
O=C1NC(=S)S/C1=C\c1ccc(-c2ccc(Cl)c(C(=O)O)c2)o1	> 250 µM	> 250 µM	> 155 µM	155 µM	–	–
COc1cc(-c2ccc(C=C3C(=O)NC(=S)NC3=O)o2)c(Cl)cc1C(=O)O	43.2 µM	35.3 µM	> 100 µM	100 µM	–	–
O=C1NC(=S)S/C1=C\c1ccc(-c2ccc(C(=O)O)c(O)c2)o1	182 µM	> 250 µM	30.1 µM	> 72 µM	97.7 µM	2
O=C1NC(=S)N/C1=C\c1ccc(-c2ccc(C(=O)O)c(O)c2)o1	107 µM	74 µM	> 193 µM	193 µM	–	–
Cc1cc(-c2ccc(C(=O)O)c(O)c2)oc1/C=C1\SC(=S)NC1=O	158 µM	135 µM	–	–	–	–
Cc1cc(-c2ccc(C(=O)O)c(O)c2)oc1C=C1C(=O)NC(=S)NC1=O	90.9 µM	125 µM	> 125 µM	> 125 µM	–	–
O=C1NC(=S)N/C1=C\c1ccc(-c2ccc(O)c(C(=O)O)c2)o1	50.9 µM	> 250 µM	95.2 µM	152 µM	> 250 µM	2
Cc1nnc(C(=O)NC(C)(C)c2nc(C(=O)NCc3ccc(F)cc3)c(O)c(=O)n2C)o1	–	–	0.0064 µM	143 µM	–	–
O=C1NC(=S)NC(=O)C1=Cc1ccc(-c2cc(C(=O)O)cc(O)c2O)o1	5.06 µM	5.79 µM	54.7 µM	138 µM	> 250 µM	3
Cc1c(-c2ccc(C=C3C(=O)NC(=S)NC3=O)o2)cccc1[N+](=O)[O-]	58.4 µM	40.8 µM	> 17.9 µM	17.9 µM	–	–
O=C1NC(=S)NC(=O)C1=Cc1ccc(-c2ccc(F)cc2C(=O)O)o1	184 µM	47.1 µM	> 165 µM	165 µM	–	–
O=C1NC(=S)NC(=O)C1=Cc1ccc(-c2cc(C(=O)O)cc3c2OCO3)o1	56.5 µM	71.6 µM	> 125 µM	> 125 µM	–	–
COc1cc(-c2ccc(/C=C3\SC(=S)NC3=O)o2)c(Cl)cc1C(=O)O	> 250 µM	> 250 µM	> 143 µM	143 µM	–	–
O=C1NC(=S)NC(=O)C1=Cc1ccc(-c2ccc(Cl)c(C(=O)O)c2)o1	41.7 µM	12.9 µM	> 152 µM	152 µM	–	–
O=C1NC(=S)S/C1=C\c1ccc(-c2cc(C(=O)O)cc(O)c2O)o1	15.5 µM	22.3 µM	18 µM	131 µM	164 µM	7
COc1cc(-c2ccc(C(=O)O)c(O)c2)oc1/C=C1\SC(=S)NC1=O	> 250 µM	> 250 µM	112 µM	> 125 µM	–	–
O=C1NC(=S)NC(=O)C1=Cc1ccc(-c2ccc(C(=O)O)c(O)c2)o1	8.94 µM	2.74 µM	30 µM	60 µM	69.2 µM	2
O=C1NC(=S)NC(=O)C1=Cc1ccc(-c2ccc(O)c(C(=O)O)c2)o1	33.4 µM	53 µM	> 222 µM	222 µM	–	–
COc1cc(C(=O)O)cc(OC)c1-c1ccc(C=C2C(=O)NC(=S)NC2=O)o1	167 µM	> 250 µM	> 61.1 µM	61.1 µM	–	–
